The values below come from patent US8314130B2, “Compounds inclunding substituted pyridines for inflammation and immune-related uses” (Synta Pharmaceuticals Corp., priority 2008, dated 2012).

Each structure is given as a SMILES string.

Assay [1] addresses T1, CRACM1/STIM1 (Homo sapiens, UniProt Q96D31).
T1 construct: Full length human Stim1, CracM1, CracM2 and CracM3 cDNA
Briefly: ICRAC current inhibition in CRACM1/STIM1-CHOK1 cells (patch clamp). Type of assay: cell-based. The conditions noted are these: activity class; for inhibition at 0.5 µM: 500 nM. The protocol:
Manual patch clamp experiments are conducted in the tight-seal whole-cell configuration at room temperature (21-25° C.). Patch pipettes are fashioned from borosilicate glass capillary tubes and have resistances between 2-4 MO after filling with standard intracellular solution. High resolution current recordings are acquired with a computer-based patch clamp amplifier system (EPC-10, HEKA, Lambrecht, Germany). All voltages are corrected for a liquid junction potential of 10 mV between external and internal solutions with glutamate as the intracellular anion. Currents are filtered at 2.9 kHz and digitized at 10 μs intervals. Capacitive currents and series resistance are determined and corrected before each voltage ramp using the automatic capacitance compensation of the EPC-10.
Automated patch clamp experiments are conducted with the QPatch 16 (Sophion Bioscience, Ballerup, Denmark) at room temperature (21-25° C.). Immediately following the establishment of giga-seal whole-cell configuration, the cells membrane potential is clamped at 0 mV. Voltage ramps of 50 ms duration spanning the voltage range of −100 to +100 mV are then stimulated at a rate of 0.33 Hz. Currents are filtered at 2.9 kHz and digitized at 200 μs intervals. Capacitive currents and series resistance are determined and corrected before each voltage ramp using the automatic capacitance compensation.
In general, a whole cell patch clamp method is used to examine the effects of a compound of the invention on a channel(s) that mediates ICRAC. In such experiments, a baseline ICRAC measurement is established within the first 70 voltage ramps, or 140 seconds, for a patched cell. Then the cells are perfused with the compound to be tested and the effect of the compound on ICRAC is measured for at least an additional 440 to 500 seconds. A compound that modulates ICRAC (e.g., inhibits) is a compound that is useful in the invention for modulating CRAC ion channel activity.
ICRAC currents are measured using 50 msec voltage ramps between −100 mV to +100 mV. The voltage ramps are stimulated every 2 seconds for the first 70 sweeps, then every 5 seconds for the remainder of the experiment. The membrane potential is held at 0 mV between the test ramps. In a typical experiment, the peak inward currents will develop within 50-100 seconds. Once the ICRAC current is stabilized, the cells are perfused with a test compound in the extracellular solution for at least an additional 500 seconds.
Off-line analysis with the Heka PatchMaster software is used to separate the ICRAC membrane current from the cells basal background currents. In a typical recording, InsP3 stimulated ICRAC currents begin to develop in 6 to 12 seconds after whole cell is established. Therefore, the first 1-4 voltage ramps represent the basal membrane currents in the absence of ICRAC and the average value is subtracted from all subsequent traces. The current value at −80 mV for each ramp trace is then measured and plotted against time. The resulting current versus time data is exported into a Microsoft Excel spreadsheet. The % ICRAC inhibition in each cell is calculated by comparing the amount of current just prior to the compound perfusion to the amount of current after the cells has been perfused with the compound for 440-500 seconds. The IC50 value and Hill coefficient for each compound is estimated by fitting all the individual data points to a single-site Hill equation.
TREx™-CHO cells were transfected with human Stim1 (recombinant DNA in pcDNA4/TO/myc-His™ A with a myc epitope tag in the N-terminal) and either CracM1, CracM2 or CracM3 (recombinant DNA in pcDNA 3.1 with a HA epitope tag in the N-terminal). Stably expressing cells were selected by growing the transfected cells in antibiotics for two to three weeks. Individual cell clones were isolated via serial dilution. […]
A general note: In patch-clamp work, channel activity is measured electrically.

Assay [2] relates to IL-2. Description: Inhibition of IL-2 production in PHA-activated Jurkat cells (1% FBS), ELISA. The class given is cell-based. The conditions noted are these: Homo sapiens, activity class, read-out: IL-2 current inhibition Jurkat/PHA/1% FBS IC50. Here is the method: Jurkat cells were placed in a 96 well plate (0.5 million cells per well in 1% FBS medium), and then a test compound of this invention was added at different concentrations. After 10 minutes, the cells were activated with PHA (final concentration 2.5 μg/mL) and incubated for 20 hours at 37° C. under 5% CO2. The final volume was 200 Following incubation, the cells were centrifuged, and the supernatants collected and stored at −70° C. prior to assaying for IL-2 production. A commercial ELISA kit (IL-2 Eli-pair, Diaclone Research, Besancon, France) was used to detect production of IL-2, from which dose response curves were obtained. The IC50 value was calculated as the concentration at which 50% of maximum IL-2 production after stimulation was inhibited versus a non-stimulation control.

T1 sequence (Q96D31 whole entry): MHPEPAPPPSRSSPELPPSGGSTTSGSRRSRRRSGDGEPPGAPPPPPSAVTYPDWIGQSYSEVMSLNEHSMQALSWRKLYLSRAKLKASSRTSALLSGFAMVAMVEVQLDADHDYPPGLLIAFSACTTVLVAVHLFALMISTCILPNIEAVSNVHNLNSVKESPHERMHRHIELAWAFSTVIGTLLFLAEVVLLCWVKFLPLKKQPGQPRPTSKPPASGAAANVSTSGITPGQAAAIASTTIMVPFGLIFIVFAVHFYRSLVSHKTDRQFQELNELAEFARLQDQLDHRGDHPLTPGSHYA

With `Cc1sc(C(=O)c2cccnc2)cc1-c1ccc(NC(=O)c2c(F)cccc2F)cc1` [O], the “ICRAC current inhibition CRACM1/STIM1-CHOK1 % Inhibition at 500 nM” value in assay [1] was “High”. Also, in assay [2], the IC50 is < 50 nM.

As usually defined, the inhibition is the relative decrease from the control value, in per cent. For `Cc1cc(C(=O)c2cccnc2)sc1-c1ccc(NC(=O)c2c(F)cccc2F)nc1` [B], the inhibition at 0.5 µM in assay [1] lay in the range of 50 to 70%. In assay [2], the IC50 was < 50 nM.

The molecule `C=C(C)c1sc(-c2cccnc2)cc1-c1ccc(NC(=O)c2c(F)cccc2F)nc1` [Compound 10, 2,6-difluoro-N-(5-(2-(prop-1-en-2-yl)-5-(pyridin-3-yl)thiophen-3-yl)pyridin-2-yl)benzamide] gave an inhibition at 0.5 µM in assay [1] of 50 to 70%. In assay [2], the IC50 was < 50 nM.

With `Cc1cc(C(=O)c2ccccc2)sc1-c1ccc(NC(=O)c2c(F)cccc2F)cc1` [A], the inhibition at 0.5 µM in assay [1] lay within 70 to 100%. For the same molecule, the IC50 in assay [2] is < 50 nM.

In the case of `Cc1sc(-c2cnn(C)c2)nc1-c1ccc(NC(=O)c2c(F)cccc2F)cc1` [H], the inhibition at 0.5 µM in assay [1] was 70 to 100%. Moreover, the IC50 in assay [2] was < 50 nM.

Regarding `CC(C)c1sc(-c2cccnc2)cc1-c1ccc(NC(=O)c2c(F)cccc2F)nc1` [Compound 11, 2,6-difluoro-N-(5-(2-isopropyl-5-(pyridin-3-yl)thiophen-3-yl)pyridin-2-yl)-benzamide], the inhibition at 0.5 µM in assay [1] was < 50%. Besides, in assay [2], the IC50 was < 50 nM.

For the molecule `Cc1sc(-c2cnn(C)c2)nc1-c1ccc(NC(=O)c2c(F)cccc2F)nc1` [Compound 4, 2,6-Difluoro-N-(5-(5-methyl-2-(1-methyl-1H-pyrazol-4-yl)thiazol-4-yl)pyridin-2-yl)benzamide], in assay [1], the inhibition at 0.5 µM was < 50%. In addition, the IC50 in assay [2] is < 50 nM.

For the molecule `CC(C)c1sc(-c2cccnc2)cc1-c1ccc(NC(=O)c2c(F)cccc2F)cc1` [Compound 15, 2,6-difluoro-N-(4-(2-isopropyl-5-(pyridin-3-yl)thiophen-3-yl)phenyl)benzamide], the inhibition at 0.5 µM in assay [1] was 50 to 70%. For the same molecule, the IC50 in assay [2] is < 50 nM.
